# Measurements published in patent publication US10993957B2 (NuCana plc, priority 2011, dated 2021).
# Like-named read-outs stand apart in the source and are kept apart here.
# Assays:
# L1210/0 = test: Cytostatic assay, L1210/0 cells; format: cell-based, murine; conditions: Mus musculus; for IC50: read-out: IC50 L1210/0
# Source text: The cell lines employed were L1210/0 (a leukemia cell line), FM3A/0 (a breast cancer cell line), Cem/0 (an acute lymphoblastic leukemia cell line) and HeLa (a cervical cell line).
# Cem/TK^− = test: Cytostatic assay, thymidine kinase-deficient CEM/TK^− cells; format: cell-based, human; conditions: Homo sapiens, CEM-TK(-)
# human TP = target: T1, human TP (Homo sapiens, UniProt P19971); test: Phosphorolysis by human TP, HPLC; conditions: 100 μM compound, room temperature, 0-40 min
# T1 sequence (P19971 11-482): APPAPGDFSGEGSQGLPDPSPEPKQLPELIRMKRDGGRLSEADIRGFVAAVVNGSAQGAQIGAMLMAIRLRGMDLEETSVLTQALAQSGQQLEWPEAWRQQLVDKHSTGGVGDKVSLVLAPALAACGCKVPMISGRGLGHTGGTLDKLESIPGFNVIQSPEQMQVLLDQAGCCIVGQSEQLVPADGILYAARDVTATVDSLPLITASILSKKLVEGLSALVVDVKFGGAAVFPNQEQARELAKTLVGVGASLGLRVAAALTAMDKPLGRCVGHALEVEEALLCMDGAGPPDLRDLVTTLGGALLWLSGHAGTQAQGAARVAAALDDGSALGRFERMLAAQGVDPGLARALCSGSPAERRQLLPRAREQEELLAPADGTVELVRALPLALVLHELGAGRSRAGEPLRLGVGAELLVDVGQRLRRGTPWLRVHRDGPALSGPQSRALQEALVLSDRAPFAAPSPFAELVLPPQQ
# Description: (§1) Reaction mixtures containing 100 μM test compound and recombinant TP or UP (human TP: 8.6 ng/μL; E. coli TP: 3.0 ng/μL; human UP: 4 ng/mL) in a total volume of 500 μL reaction buffer (10 mM TrisHCl; 300 μM NaCl; 1 mM EDTA; 2 mM KH2PO4/K2HPO4) were incubated at room temperature. At different time points (i.e. 0, 20, 40 min) 100 μL aliquots of the reaction mixtures were withdrawn and heated at 95° C. for 3 min to inactivate the enzyme. […] The separation of Urd from uracil was performed by a linear gradient from 100% separation buffer (see above) to 60% separation buffer+40% acetonitrile (3 min 100% separation buffer; 6 min linear gradient of 100% separation buffer to 60% separation buffer+40% acetonitrile; 6 min 60% separation buffer+40% acetonitrile, followed by equilibration at 100% separation buffer).
# human UP = human UP (Homo sapiens, UniProt Q16831); test: Phosphorolysis by human UP, HPLC; conditions: 100 μM compound, room temperature, 0-40 min
# Description: as §1
# [1] = Stability in human serum by in situ 31P NMR; format: in vitro ADME; conditions: 37° C., after 12 hours and 30 minutes
# Description: The stability of the prodrug CPF-373 in the presence of human serum was studied using in situ ^31P NMR (202 MHz). The ProTide CPF-373 (1) (5.0 mg) was dissolved in DMSO (0.05 mL) and D2O (0.15 mL). Then the sample was transferred into an NMR tube, which was inserted in the NMR chamber at 37° C. (with enough solvent to obtain a control NMR reading of the blank). Then 0.3 ml human serum was quickly added to the sample in the NMR tube. NMR experiments were programmed to record data every 15 minutes for 12 hours and 30 minutes. Because of excess noise and poor shimming profiles (most likely due to the biological media and concentration), individual spectra were further processed. After normal Fourier transform processing, each spectrum was deconvoluted (Lorentz-Gauss deconvolution) to reveal solely the frequency and area of spectral peaks without the baseline. Data recorded were processed and analysed with the Bruker Topspin 2.1 program.
# Chemical stability studies on the prodrug CPF-373 (1) have been performed by exposing the compound to human serum and to aqueous buffers (pH 1.0 and 8.0) using in situ ^31P NMR. […]
# The stability of compound CPF 386 in the presence of human serum was investigated using in situ ^31P NMR. A control ^31P NMR data of compound CPF 386 in DMSO and D2O were recorded. […] The ^31P NMR data were recorded every 15 minutes over 14 h. […]
# Sequence of human UP (Q16831 whole entry): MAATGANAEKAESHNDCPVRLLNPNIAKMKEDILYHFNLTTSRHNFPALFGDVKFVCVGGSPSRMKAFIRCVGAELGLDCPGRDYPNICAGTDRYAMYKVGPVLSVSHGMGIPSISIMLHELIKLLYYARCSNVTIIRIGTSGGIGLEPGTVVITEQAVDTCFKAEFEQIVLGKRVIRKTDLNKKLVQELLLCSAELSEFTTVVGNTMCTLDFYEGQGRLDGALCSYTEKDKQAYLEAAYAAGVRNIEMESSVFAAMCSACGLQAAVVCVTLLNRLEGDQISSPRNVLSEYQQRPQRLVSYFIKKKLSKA
structure (smiles),measurement,setting,value
"C[C@H](NP(=O)(OC[C@H]1O[C@@H](n2cc(F)c(=O)[nH]c2=O)CC1O)Oc1cccc2ccccc12)C(=O)OCc1ccccc1 (stereo partly drawn) [CPF 373, 5-Fluoro-2′deoxyuridine-5′-O-[1-naphthyl (benzoxy-L-alaninyl)] phosphate]",CC50,"L1210/0; L1210/0, Table 2, mycoplasma negative cells, read-out: CC50 L1210",11 nM
same,IC50,"L1210/0; L1210/0, Table 3",11 nM
same,IC50,"L1210/0; L1210/0, Table 6",11 ± 7 nM
same,IC50,"L1210/0; L1210/0, Table 7",11 ± 9 nM
same,IC50,"Cem/TK^−; Table 3, read-out: IC50 CEM/TK−",320 nM
same,IC50,"Cem/TK^−; Table 6, read-out: IC50 Cem/TK^−",310 ± 60 nM
same,Phosphorolysis by human TP,human TP,fully stable
same,Phosphorolysis by human UP,human UP,not affected
same,unchanged compound after incubation in human serum,[1],73%
